Columns and labels:
Format in all cases: cell-based, human
IL13CAR-T cells = assay: CFSE dilution T cell proliferation assay; details: 72 hours
Procedure: Carboxyfluorescein succinimidyl ester (CFSE; 0.5 μg/ml; Invitrogen) was used to measure T cell proliferation by flow cytometry.
To further understand the mechanism, CAR-T cells were stained with CFSE and were cultured either unstimulated or treated with IL13Rα2-Fc±SB216763 for 72 hours. CFSE is a fluorescent cell staining dye and can be used to monitor lymphocyte proliferation, both in vitro and in vivo, due to the progressive halving of CFSE fluorescence within daughter cells following each cell division (Lyons et al., Journal of immunological methods 171: 131-137, 1994).

[1] = system: IL13Rα2-Fc activated IL13CAR-T cells; assay: Activated T cell death (ATCD): flow cytometric FasL expression
Procedure: (§1) Purified rat anti-human IL13 antibody and allophycocyanin (APC)-conjugated anti-rat antibody was used to measure IL13CAR expression. Anti-human CD3-FITC was used in certain experiments for identifying T cells. For CD4:CD8 analysis of IL13CAR-T cells, anti-human CD4-FITC and anti-human CD8-PE.Cy7 were used in CAR-T cells that were positive for IL13CAR expression. FasL expression and PD-1 expression on activated IL13CAR-T cells was measured by staining with anti-human FasL-FITC (Thermo-Fisher) anti-human PD1-FITC respectively. […]
Untransduced or IL13CAR-T cells (1×10^6) were activated with IL13Rα2-Fc chimera at specific concentrations in 24 well plates, with or without GSK3β inhibitor (SB216763, 20 μM; Sigma, St Louis, Mo.) or added IL2 in the culture medium. […] Long-time survival of IL13CAR-T cells following GSK3β inhibition was measured by flow cytometry using live-dead gating (Sengupta et al., Immunobiology 210: 647-659, 2005). Activated T cell death (ATCD) was measured by flow cytometric reading of FasL expression (FITC; Thermo-Fisher) on activated IL13CAR-T cells.
IL13CAR-T cells (32% CAR+) were cultured for 14 days in the presence of soluble IL13Rα2-Fc (1 μg/ml) and GSK3β inhibitor (SB216763; 20 μM) in RPMI1640 medium supplemented with 10% FBS and antibiotics, with or without added IL2. […] To confirm this phenomenon FasL expression was measured in IL13Rα2-Fc treated CAR-T cells at day 14. […]

[2] = system: IL13Rα2-Fc activated CAR-T cells; assay: Intranuclear β-catenin accumulation by flow cytometry; details: 36-48 hours
Procedure: as §1, with “respectively. Anti-human CD127-FITC, anti-human CD62L-PE, Anti-human CCR7-FITC anti-human CD45RO-PE and anti-human CD45RA-PE.Cy7 were used for flow cytometric measurement of T cell memory marker. Respective isotype controls or antibody controls (where applicable) were used to draw positive gates for each experiment. All antibodies were procured from either BD Biosciences or eBisociences.” for “respectively.”
Experiments were conducted to understand the molecular mechanism of GSK3β-inhibition on activated T cell expansion. […] IL13Rα2-Fc activated CAR-T cells were treated with or without SB216763 for 36-48 hours and measured for intra-nuclear accumulation of β-catenin by flow cytometry. […]

[3] = system: IL13Rα2-Fc activated IL13CAR-T cells; assay: qPCR of TBX21, PDCD1 and IFNG genes; details: normalized to GAPDH
Procedure: Total RNA was isolated from IL13CAR-T cells using the RNeasy Mini Kit according to the manufacturer's protocol (Qiagen). cDNA was prepared from RNA using iScript cDNA Synthesis Kit (Biorad, Carlsbad, Calif.). qPCR was performed targeting IFNG, TBX21, and PDCD1 genes using SyBR Green PCR master Mix (Applied Biosystems). CT values of target genes were normalized to that of housekeeping gene GAPDH, and relative gene expression was calculated using ΔΔCT method.
(§2) GSK3 inhibition reduces PD-1 mediated T cells exhaustion, which is dependent on T-bet expression (Taylor et al., Immunity 44: 274-286. 2016), and GSK3β pathway directly regulates T-bet expression in activated T cells (Verma et al., J Immunol 197: 108-118, 2016). Significant survival advantage of GSK3β inhibition in activated T cells prompted us to study T-bet and PD-1 expression in IL13Rα2-activated IL13CAR-T cells.

[4] = system: IL13Rα2-Fc activated IL13CAR-T cells; assay: T cell survival assay (viability by flow cytometry, live-dead gating, 14 days); details: SB216763 20 μM, IL13Rα2-Fc 1 μg/ml, absence of added IL2
Procedure: Untransduced or IL13CAR-T cells (1×10^6) were activated with IL13Rα2-Fc chimera at specific concentrations in 24 well plates, with or without GSK3β inhibitor (SB216763, 20 μM; Sigma, St Louis, Mo.) or added IL2 in the culture medium. IL13CAR-T cell survival assays were performed as described above for 14 days. Long-time survival of IL13CAR-T cells following GSK3β inhibition was measured by flow cytometry using live-dead gating (Sengupta et al., Immunobiology 210: 647-659, 2005). Activated T cell death (ATCD) was measured by flow cytometric reading of FasL expression (FITC; Thermo-Fisher) on activated IL13CAR-T cells.
IL13CAR-T cells (32% CAR+) were cultured for 14 days in the presence of soluble IL13Rα2-Fc (1 μg/ml) and GSK3β inhibitor (SB216763; 20 μM) in RPMI1640 medium supplemented with 10% FBS and antibiotics, with or without added IL2. Cells were harvested at days 1, 4, 7, 10 and 14 and stained for CD3 and IL13CAR expression, and viability of cells were measured by flow cytometry and analyzed for viability as described earlier. […] The loss in viability was rescued by addition of IL2 in culture conditions (FIG. 1A; Top Panel; close squares) or inhibition of GSK3β with SB216763 in absence of added IL2 (FIG. 1A; Bottom Panel; open squares). […] To confirm this phenomenon FasL expression was measured in IL13Rα2-Fc treated CAR-T cells at day 14. […]

[5] = system: IL13Rα2-activated IL13CAR-T cells; assay: Flow cytometry of T-bet and PD-1 expression
Procedure: (§3) Purified rat anti-human IL13 antibody and allophycocyanin (APC)-conjugated anti-rat antibody was used to measure IL13CAR expression. Anti-human CD3-FITC was used in certain experiments for identifying T cells. For CD4:CD8 analysis of IL13CAR-T cells, anti-human CD4-FITC and anti-human CD8-PE.Cy7 were used in CAR-T cells that were positive for IL13CAR expression. FasL expression and PD-1 expression on activated IL13CAR-T cells was measured by staining with anti-human FasL-FITC (Thermo-Fisher) anti-human PD1-FITC respectively. Anti-human CD127-FITC, anti-human CD62L-PE, Anti-human CCR7-FITC anti-human CD45RO-PE and anti-human CD45RA-PE.Cy7 were used for flow cytometric measurement of T cell memory marker. Respective isotype controls or antibody controls (where applicable) were used to draw positive gates for each experiment. All antibodies were procured from either BD Biosciences or eBisociences. For intranuclear staining of β-catenin localization, nuclear permeabilization of CAR-T cells was achieved using FoxP3 staining buffer (eBioscience-Affymetrix, San Diego, Calif.) and staining with anti-human β-catenin rabbit mAb (Cell Signaling Technologies, Danvers Mass.) and anti-rabbit IgG conjugated with Alexa Fluor (AF) 488 or 647 (Cell Signaling Technologies).
as §2

[6] = system: IL13Rα2-Fc activated IL13CAR-T cells; assay: T cell memory marker expression by flow cytometry; details: 7 days
Procedure: as §3
Experiments were conducted to test the effects of SB216763 treatment on memory generation in IL13Rα2-Fc activated IL13CAR-T populations. IL13CAR-T cells were activated with increasing concentrations of IL13Rα2-Fc (0-1 μg/ml) in the presence or absence of SB216763 for 7 days. Cell surface expression of T cell memory markers were measured by flow cytometry. Since memory generation was monitored as a functional derivative of CD8+ T cells, experiments were conducted to additionally measure the intracellular expression of IL7R (CD127) expression as a marker of CD8+ memory CAR-T cell homeostasis.

Cn1cc(C2=C(c3ccc(Cl)cc3Cl)C(=O)NC2=O)c2ccccc21 [SB216763, 3-(2,4-Dichlorophenyl)-4-(1-methyl-1H-indol-3yl)-1H-pyrrole-2,5-dione]
proliferation of IL13Rα2-Fc activated CAR-T cells (IL13CAR-T cells): increased proliferation
proliferation of unstimulated CAR-T cells (IL13CAR-T cells): no such efforts
frequency of activated CAR-T cells expressing FasL ([1]; day 14, SB216763 treated): 25.3%
reduction of FasL expression ([1]; day 14, versus activated CAR-T cells not treated with the inhibitor): 55%
nuclear β-catenin MFI ([2]; SB216763 treated): 1618 MFI
increased accumulation of β-catenin in the nucleus ([2]; versus untreated activated CAR-T cells): 66%
decrease in PDCD1 (PD-1) gene expression [3]: 5 fold
increase in TBX21 (T-bet) gene expression [3]: 90 fold
loss in viability of activated IL13CAR-T cells [4]: rescued
T-bet expression (FACS) ([5]; activated IL13CAR-T cells, GSK3β inhibition): significant upregulation
frequency of PD-1+ IL13CAR-T cells ([5]; activated, GSK3β inhibited): 17.3%
reduction in PD-1 expression ([5]; versus activated IL13CAR-T cells not treated): 60%
CCR7 expression [6]: no difference
CD45RA expression [6]: no difference
CD62L expression [6]: complete inhibition
increase in CD45RO ([6]; IL13Rα2-Fc 0-1 μg/ml): 4 fold
increase in CD127 ([6]; IL13Rα2-Fc 0-1 μg/ml): 10 fold
